{"source": "paper PMC13183915", "about": "“A platinum butterfly effect: small changes turn an anticancer drug into a non-toxic metalloantibiotic with in vivo efficacy” (npj Antimicrobials and Resistance, 2026)", "key": {"Escherichia coli W3110": {"test_system": "Escherichia coli W3110", "test": "MIC assay, E. coli", "type": "cell-based", "conditions": "Table S1, unit not given; method: starting concentration 100 μM"}, "MRSA NRS 100": {"test_system": "MRSA NRS 100", "test": "Broth microdilution MIC, MRSA NRS 100", "type": "cell-based, S. aureus", "conditions": "MRSA NRS 100", "description": "(§1) The data is given in supporting information (Table S5). Before starting the experiment, a single colony was picked from MHA plate, inoculated in MHBII and incubated overnight at 37 °C with shaking for 18–24 h to get the starter culture. Antibiotic susceptibility testing was conducted according to the CLSI (Clinical & Laboratory Standards Institute) guidelines using the broth microdilution assay. 10 mg/mL stock solutions of test compounds were prepared in DMSO. Bacterial cultures were inoculated in MHBII and optical density (OD) was measured at 600 nm, followed by dilution to achieve ~10^6 CFU/mL. The compounds were tested from 64 to 0.5 mg/L in two-fold serial diluted fashion with 2.5 μL of each concentration added to well of a 96-well round bottom microtiter plate. Later, 97.5 μL of bacterial suspension was added to each well containing either test compound or appropriate controls. […] The MIC is defined as the lowest concentration of the compound at which there is absence of visible growth. For each test compound, MIC determinations were carried out independently three times using duplicate samples."}, "MRSA NRS 193": {"test_system": "MRSA NRS 193", "test": "Broth microdilution MIC, MRSA NRS 193", "type": "cell-based, S. aureus", "conditions": "MRSA NRS 193", "description": "as §1"}, "MRSA NRS 194": {"test_system": "MRSA NRS 194", "test": "Broth microdilution MIC, MRSA NRS 194", "type": "cell-based, S. aureus", "conditions": "MRSA NRS 194", "description": "as §1"}, "VRSA VRS 1": {"test_system": "VRSA VRS 1", "test": "Broth microdilution MIC, VRSA VRS 1", "type": "cell-based, S. aureus", "conditions": "VRSA VRS 1", "description": "as §1"}, "VRSA VRS 4": {"test_system": "VRSA VRS 4", "test": "Broth microdilution MIC, VRSA VRS 4", "type": "cell-based, S. aureus", "conditions": "VRSA VRS 4", "description": "as §1"}, "VRSA VRS 12": {"test_system": "VRSA VRS 12", "test": "Broth microdilution MIC, VRSA VRS 12", "type": "cell-based, S. aureus", "conditions": "VRSA VRS 12", "description": "as §1"}, "E. coli ATCC 25922": {"test_system": "E. coli ATCC 25922", "test": "Broth microdilution MIC, E. coli ATCC 25922", "type": "cell-based", "description": "as §1"}, "A. baumanii BAA 1605": {"test_system": "A. baumanii BAA 1605", "test": "Broth microdilution MIC, A. baumannii BAA 1605", "type": "cell-based, Acinetobacter baumannii", "description": "as §1"}, "P. aeruginosa ATCC 27853": {"test_system": "P. aeruginosa ATCC 27853", "test": "Broth microdilution MIC, P. aeruginosa ATCC 27853", "type": "cell-based, Pseudomonas aeruginosa", "description": "as §1"}, "HEK293T cells": {"test_system": "HEK293T cells", "type": "cell-based, Human", "description": "The control for the experiments was DMSO. HEK293T cells were cultivated in DMEM high glucose supplemented with 10% heat-inactivated fetal bovine serum, 100 U/mL of penicillin and streptomycin and maintained at a temperature of 37 °C with 5% CO2. Initially, 4000/well of cells were seeded into 96-well plates and incubated for 24 h before being exposed to compounds at concentrations ranging from 0.78, 50, and 100 µM. After 24 h of incubation, the compounds were added and serially diluted and incubated for 24 and 48 h at 37 °C 5% CO2, the cells were stained with alamar Blue, and the fluorescence excitation/ emission 540 nm/590 nm was measured using 96 well-plate reader. CC50 is defined as the lowest concentration of compound which leads to a 50% reduction in cell viability compared to untreated and DMSO control. Each experiment was repeated in triplicate."}, "B. subtilis 168CA [1]": {"test_system": "B. subtilis 168CA", "test": "Propidium iodide pore assay", "type": "cell-based, Bacillus subtilis", "conditions": "3.125 µM Pt1, 25 µM Pt8; 30 and 60 min", "description": "Propidium iodide staining was performed as described previously. B. subtilis 168CA was grown to an OD600 of 0.3 prior to splitting of the parent culture and treatment with the different antibiotics. After 15 and 45 min, samples were stained with 13.3 µg/mL propidium iodide for 15 min (total treatment times 30 and 60 min), and washed 3 times with phosphate-buffered saline (PBS). Fluorescence signals were recorded at an excitation wavelength of 535–15 nm and an emission wavelength of 617–20 nm in a BMG Clariostar Plus plate reader."}, "[2]": {"test_system": "MreB (B. subtilis MW10, Pxyl-gfp-mreB)", "test": "MreB mobility (cell wall synthesis reporter)", "type": "cell-based, Bacillus subtilis", "conditions": "3.12 µM Pt1, 25 µM Pt8; 30 and 60 min", "description": "B. subtilis strains were grown in LB containing appropriate inducer concentrations as specified in Table S10. After reaching an OD600 of 0.3, cultures were split and treated with antibiotics. Samples were withdrawn after 30 and 60 min of treatment, spotted on glass slides covered with 1% agarose films, and immediately imaged.\nFigure S7: Fluorescence overlays of B. subtilis MW10 (Pxyl-gfp-mreB). Cultures were treated […]\noverlays of two consecutive images captured from the same cells in a 30-second interval.\nImages were false-colored in blue and orange with overlapping signal appearing white. Distinct blue and orange spots indicate movement of MreB foci. Entirely white images indicate a stop of MreB moility (vancomycin control). Scale bar 2 µm.\n(§2) (1 picture or pasted object on this page, not shown here)"}, "[3]": {"test_system": "GFP-MinD expression (B. subtilis TB35)", "test": "Translation inhibition assay (inducible GFP-MinD expression)", "type": "cell-based, Bacillus subtilis", "conditions": "3.125 µM Pt1, 25 µM Pt8; 60 min", "description": "B. subtilis strain TB35 (Pxyl-minD-gfp) was grown in LB without inducer. After reaching an OD600 of 0.3, antibiotics and inducer (0.1% xylose) were added consecutively. Samples were withdrawn for microscopy after 60 min of treatment, spotted on glass slides covered with 1% agarose films, and imaged without delay.\nFigure S11: MinD translation induction assay. TB35 (Pxyl-minD-gfp) was grown without xylose, thus not expressing GFP -MinD. […]\nchloramphenicol (CHL). Images were taken after 60 min of induction/treatment. Scale bar 2 […]\nas §2"}, "B. subtilis 168CA [4]": {"test_system": "B. subtilis 168CA", "test": "ROS scavenger assay (modified MIC assay)", "type": "cell-based, Bacillus subtilis", "description": "LB media were prepared to contain either 10 mM tiron, 150 mM thiourea, 10 mM tiron and 150 mM thiourea, or no […]. Serial two-fold dilutions of the different antibiotics were prepared in the respective media and transferred to 96-well plates. […] The OD600 was meassured in a BMG Clariostar Plus plate reader."}, "S. aureus ATCC 29213": {"test_system": "S. aureus ATCC 29213", "test": "Resistance induction by serial passage", "type": "cell-based", "conditions": "after 36 days at ½ MIC", "description": "The MICs of the passaged cultures were determined every 3 days and compared to that of wild type S. aureus ATCC 29213. MIC changes were recorded for 36 passages."}, "C. albicans": {"test_system": "C. albicans", "design": "method as in PMID 36311838", "conditions": "cited from earlier work"}, "E. coli lpxC": {"test_system": "E. coli lpxC", "conditions": "lipid A biosynthesis-impaired mutant; cited from earlier work"}}, "note": "Values joined by “and” are separate entries in the source; they are usually repeats but may differ in a detail not shown here. Equal values may be shown once. Read-outs that look alike come from different tables or passages of the source."}
{"compound": "C1=C\\CC/C=C\\CC/1.[Cl][Pt][Cl]", "note": "[Pt1]", "values": [{"measurement": "Antibacterial activity against E. coli", "setting": "Escherichia coli W3110", "result": "> 100"}, {"measurement": "MIC", "setting": "MRSA NRS 100", "result": "0.67 to 1.34", "unit": "µM"}, {"measurement": "MIC", "setting": "MRSA NRS 193", "result": "0.25 µg/mL and 0.67 µM"}, {"measurement": "MIC", "setting": "MRSA NRS 194", "result": "0.125 – 0.25 µg/mL and 0.33–0.67 µM"}, {"measurement": "MIC", "setting": "VRSA VRS 1", "result": "0.67 to 1.34", "unit": "µM"}, {"measurement": "MIC", "setting": "VRSA VRS 4", "result": "0.67 to 1.34", "unit": "µM"}, {"measurement": "MIC", "setting": "VRSA VRS 12", "result": "0.67 to 1.34", "unit": "µM"}, {"measurement": "MIC", "setting": "E. coli ATCC 25922", "result": "> 64", "unit": "µg/mL"}, {"measurement": "MIC", "setting": "A. baumanii BAA 1605", "result": "> 64", "unit": "µg/mL"}, {"measurement": "MIC", "setting": "P. aeruginosa ATCC 27853", "result": "> 64", "unit": "µg/mL"}, {"measurement": "IC50", "setting": "HEK293T cells; 24 h", "result": "74.1 ± 4.1", "unit": "µM"}, {"measurement": "IC50", "setting": "HEK293T cells; 48 h", "result": "65.3 ± 2.7", "unit": "µM"}, {"measurement": "propidium iodide (PI) uptake", "setting": "B. subtilis 168CA [1]", "result": "Neither Pt1 nor Pt8 showed increased PI uptake"}, {"measurement": "MreB mobility", "setting": "[2]", "result": "neither Pt1 nor Pt8 affected MreB mobility"}, {"measurement": "GFP-MinD expression after xylose induction", "setting": "[3]", "result": "No differences in GFP-MinD expression were observed"}, {"measurement": "MIC fold change (increase) with scavenger", "setting": "B. subtilis 168CA [4]; medium containing 150 mM thiourea (hydroxyl radical scavenger)", "result": "tenfold"}, {"measurement": "MIC fold change (increase) with scavengers", "setting": "B. subtilis 168CA [4]; medium containing both tiron and thiourea", "result": 13, "unit": "fold"}, {"measurement": "MIC after passaging", "setting": "S. aureus ATCC 29213", "result": 0.25, "unit": "µg/mL"}, {"measurement": "fungal load", "setting": "C. albicans", "result": "reduced the fungal load"}, {"measurement": "antibacterial activity", "setting": "E. coli lpxC", "result": "inactive"}]}
